Like-named read-outs stand apart in the source and are kept apart here.
What was measured:
[1] = test system: Escherichia Coli (E. coli, ATCC25922); assay: Anti-microbial rate of finished cotton textiles, FZ/T73023-2006 D.8 shocking method; format: cell-based; settings: Escherichia coli, ATCC25922, finishing liquid 1.0 wt %, read-out: Anti-microbial rate (%) of cotton textiles finished with compound E (1.0 wt %), E. coli
Source text: (§1) Each of the reaction products (i.e., compound E) according to Examples 1-21 was used to prepare an anti-microbial agent (e.g., a finishing liquid), and the anti-microbial effects were different depending on compound E and conditions of use.
(§2) Remarks: 1) in the data of anti-microbial rate in Table 5: Examples 1-9 used a soaking-rolling-drying process to finish cotton fabric, where the bath ratio (i.e., the ratio of the weight of a liquid containing compound E to the weight of the cotton fabric) was 20:1, the residual liquid ratio was 90%, and the drying process was conducted at 85° C. for 30 minutes; Examples 10-18 were prepared by a soaking-high speed spinning-drying method, where the bath ratio was 20:1, the residual liquid ratio was 90%, and the drying process was conducted at 85° C. for 20 min; Examples 19-21 were prepared by a spraying-spinning-drying process with a bath ratio of 30:1, a residual liquid ratio of 85% after drying, and the drying process was conducted at 105° C. for 5 minutes.
(§3) 2) Table 5 data test method: FZ/T73023-2006 anti-microbial textiles D.8 shocking method. In addition, the inhibition zone method (FZ/T73023-2006 anti-microbial textiles—Appendix E—inhibition zone method) was used to test whether the active compound (E) was released from the finished cotton textiles, the inhibition zone test result of the 21 examples and zwitterions were 0 mm, and thus compound E was not released from the finished cotton textiles. The anti-microbial finishing agent used in the comparative experiment was zwitterion with the molecular structure
(§4) 3) The composition of the finishing liquid in Table 5 was: compound E 1.0 wt %, sodium bicarbonate 1.0 wt %, and the rest of the finishing liquid was water.

[2] = test system: Staphylococcus Aureus (S. aureus, ATCC 6538); assay: as above; format: cell-based; settings: Staphylococcus aureus, ATCC6538, finishing liquid 1.0 wt %, read-out: Anti-microbial rate (%) of cotton textiles finished with compound E (1.0 wt %), S. aureus
Source text: as §1, §2, §3, §4

[3] = test system: Candida Albicans (C. albicans 10231); assay: as above; format: cell-based; settings: Candida albicans, finishing liquid 1.0 wt %, read-out: Anti-microbial rate (%) of cotton textiles finished with compound E (1.0 wt %), C. albicans
Source text: as §1, §2, §3, §4

[4] = test system: Escherichia coli (E. coli, ATCC 25922); assay: Anti-microbial performance of finished textiles, shock method (GB/T 20944.3-2007); format: cell-based
Protocol: (§5) (1) A comparison of the anti-microbial effects of textiles soaked with compound E obtained in Example 2 and unsoaked textiles was shown in FIG. 1. The experimental procedure was: The anti-microbial performance of the finishing text was tested by the shock method (GB/T 20944.3-2007). The tested microorganism were Gram-negative Escherichia coli (E. coli, ATCC 25922) and Gram-positive Staphylococcus Aureus (S. Aureus, ATCC 6538). The specific experimental operations are as follows: 1) inoculating and culturing the microorganisms at 37° C. for 14 h; diluting the microbial solution to 10^−5 using a sterilized PBS buffer (pH=7.2) to obtain a diluted microbial solution; 2) taking the same size of blank textiles (e.g., cloth) and textiles (finished using compound E and sterilized) in different 50 mL tubes, adding 5 mL of diluted microbial solution to immerse the textiles, sealing the tubes and putting the tubes on a shaker for shaking the tubes under 37° C. at 190 r/min for 24 h; 3) after 24 hours of cultivation, the tubes were taken out and diluted to 10 times using a PBS solution. 100 μL of the diluted microbial solution was added to the nutrient agar medium, uniformly spread to dryness, placed in an incubator, and cultured at 37° C. for 16 h, and then the plates were taken out, and the number of colonies in each plate was counted. The anti-microbial rate was calculated by the following equation: Anti-microbial rate (%)=[…]. Notes: N1 denotes the number of colonies in the finished cloth; N0 denotes the number of colonies in blank cloth.
(§6) The inhibitory effect of compound E obtained in Example 19 on Escherichia coli and Staphylococcus Aureus at various concentrations was shown in FIGS. 3 to 5. The experimental procedure was: using the enzyme linked immunosorbent assay to determine the minimal inhibitory concentration (MIC) value of the anti-microbial drug, and adding the diluted anti-microbial drug solution to the sterilized 100-well plate, respectively. Specifically, 10 ul of drug solution (i.e., a solution of compound E) was added to the first to eleventh holes at concentrations of 100 μg/ml, 90 μg/ml, 80 μg/ml, 70 μg/ml, 60 μg/ml, 50 μg/ml, 40 μg/ml, 30 μg/ml, 20 μg/ml, 10 μg/ml, 5 μg/ml. The drug solution was not added to the twelfth hole which serves as a control group; the bacterial suspension was diluted by LB broth (0.5 Mcfarland Standard dilution to 1000 times with a bacterial concentration of 105 colony-forming unit (CFU)/ml), and 90 μl of the bacterial suspension was added to each well. […] The change curve of OD600 value for 24 h was measured in a microplate reader (automatic growth-curve machine). […]

[5] = test system: Staphylococcus Aureus (S. aureus, ATCC 6538); assay: as above; format: cell-based
Protocol: as §5, §6

[6] = test system: Gram-negative bacteria (E. coli); assay: Anti-microbial performance of finished textiles, live cell counting method; format: cell-based; settings: textiles soaked with compound E (1.0 wt %)
Protocol: (§7) (2) A comparison of the anti-microbial effects of textiles soaked with compound E obtained in Example 11 and unsoaked textiles was shown in FIG. 2. The experimental procedure was as follows: the anti-microbial performance of the finished textiles was tested by the live cell counting method, and the anti-mite activity of the house dust mites was evaluated according to the national standard method (GB/T 24253-2009).

[7] = test system: fungi (Aspergillus niger); assay: as above; format: cell-based; settings: textiles soaked with compound E (1.0 wt %)
Protocol: as §7

[8] = test system: Gram-positive bacteria (Staphylococcus aureus); assay: as above; format: cell-based; settings: textiles soaked with compound E (1.0 wt %)
Protocol: as §7

house dust mites = assay: Anti-mite activity of finished textiles (GB/T 24253-2009); format: in vivo
Protocol: as §7

Staphylococcus Aureus = assay: Minimal inhibitory concentration (MIC), OD600 growth curve in microplate reader; format: cell-based; settings: LB broth, OD600 for 24 h, read-out: minimum inhibitory concentration against Staphylococcus Aureus
Protocol: (§8) The inhibitory effect of compound E obtained in Example 19 on Escherichia coli and Staphylococcus Aureus at various concentrations was shown in FIGS. 3 to 5. The experimental procedure was: using the enzyme linked immunosorbent assay to determine the minimal inhibitory concentration (MIC) value of the anti-microbial drug, and adding the diluted anti-microbial drug solution to the sterilized 100-well plate, respectively. Specifically, 10 ul of drug solution (i.e., a solution of compound E) was added to the first to eleventh holes at concentrations of 100 μg/ml, 90 μg/ml, 80 μg/ml, 70 μg/ml, 60 μg/ml, 50 μg/ml, 40 μg/ml, 30 μg/ml, 20 μg/ml, 10 μg/ml, 5 μg/ml. The drug solution was not added to the twelfth hole which serves as a control group; the bacterial suspension was diluted by LB broth (0.5 Mcfarland Standard dilution to 1000 times with a bacterial concentration of 105 colony-forming unit (CFU)/ml), and 90 μl of the bacterial suspension was added to each well. At this time, the drug concentrations of the first to the eleventh holes were 10 μg/ml, 9 μg/ml, 8 μg/ml, 7 μg/ml, and 6 μg/ml, 5 μg/ml, 4 μg/ml, 3 μg/ml, 2 μg/ml, 1 μg/ml, 0.5 μg/ml respectively. The change curve of OD600 value for 24 h was measured in a microplate reader (automatic growth-curve machine). […]

Escherichia coli = assay: as above; format: cell-based; settings: LB broth, OD600 for 24 h, read-out: minimum inhibitory concentration against Escherichia coli
Protocol: as §8

[9] = both finishing liquids 1.0 wt %
[10] = finished cloth, concentration of compound E >0.1%

| Structure (SMILES) | killing at 1 % ([1]; times of washing 0) | killing at 1 % ([1]; times of washing 10) | killing at 1 % ([1]; times of washing 50) | killing at 1 % ([2]; times of washing 0) | killing at 1 % ([2]; times of washing 10) | killing at 1 % ([2]; times of washing 50) | killing at 1 % ([3]; times of washing 0) | killing at 1 % ([3]; times of washing 10) | killing at 1 % ([3]; times of washing 50) | anti-microbial activity of finishing liquid compared with zwitterionic finishing liquid, E. coli [4, 9] | anti-microbial activity of finishing liquid compared with zwitterionic finishing liquid, S. aureus [5, 9] | bacteriostatic rate, E. coli [6] | bacteriostatic rate, Aspergillus niger [7] | bacteriostatic rate, Staphylococcus aureus [8] | acaricidal activity against house dust mites (house dust mites) | MIC (Staphylococcus Aureus) | MIC (Escherichia coli) | anti-microbial rate of the anti-microbial finishing liquid, E. coli [4, 10] | anti-microbial rate of the anti-microbial finishing liquid, S. aureus [5, 10] |
| --- | --- | --- | --- | --- | --- | --- | --- | --- | --- | --- | --- | --- | --- | --- | --- | --- | --- | --- | --- |
| CCCCCCCC[N+](C)(C)CCOc1nc(Cl)nc(Cl)n1 [Example 1] | 100% | 99.9% | 99.2% | 100% | 99.9% | 99.8% | 99.9% | 99.9% | 98.9% | greater than that of the zwitterionic finishing liquid | greater than that of the zwitterionic finishing liquid |  |  |  |  |  |  |  |  |
| CCCCCCCCCCCCCCCCCC[n+]1ccn(CCOc2nc(Cl)nc(Cl)n2)c1 [Example 11] | 100% | 99.9% | 99.9% | 100% | 99.9% | 99.9% | 99.9% | 99.9% | 99.6% |  |  | over 99.99% | over 99.99% | over 99.99% | good acaricidal activity |  |  |  |  |
| Br.CCCCCCCCCC[N+](C)(C)CN(CCOc1nc(Cl)nc(Cl)n1)C[N+](C)(C)CCCCCCCCCC [Example 19] | 100% | 99.9% | 99.7% | 100% | 99.9% | 99.8% | 99.9% | 99.9% | 97.9% |  |  |  |  |  |  | 1 µg/mL | 4 µg/mL | > 99.9% | > 99.9% |
